Among the test systems are ACHN renal; NCI-H226 lung; HL-60(TB) leukemia; K-562 leukemia; SK-OV-3 ovarian; RPMI-8226 leukemia; HCT-15 colon; A549 NSCLC; SF-295 CNS; SK-MEL-2 melanoma.
What all share (test): NCI tumour cell line growth inhibition, 48 h

Structures are written as SMILES. “And” between values parts separate entries of the source, which are not always exact repeats. Equal values may be shown once.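 Values below derive from 48-hour exposures of cells grown in 96-well plates, with endpoints linearly interpolated between the two concentrations bracketing the appropriate inhibition level. Abbreviation: GI50, concentration required for 50% inhibition of growth. The concentration for full growth arrest is given as TGI.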 A value given as a limit tells only on which side of the number the result lay.

As to `O=c1nc2occc2cn1C1CC(O)C(CO)O1` (stereo not drawn), the TGI in the test on ACHN renal, in the test with NCI-H226 lung, with HL-60(TB) leukemia, in the test with K-562 leukemia, in the test with SK-OV-3 ovarian and with RPMI-8226 leukemia was more than 100 µM in each case. The TGI in the test with HCT-15 colon, in the test on A549 NSCLC and in the test on SF-295 CNS was more than 100 µM in each case.

Take `CC1=CC(/C=C(\C)CCCc2ccoc2)C2(OC(=O)C(C)=C2O)[C@H]2C1CC[C@@H]2C` (stereo partly drawn): the TGI was 76.4 µM in the test with ACHN renal; 54.6 µM in the test with NCI-H226 lung; more than 100 µM in the test on K-562 leukemia; 69 µM with SK-OV-3 ovarian; 59.6 µM in the test with RPMI-8226 leukemia; 39.8 µM in the test on HCT-15 colon. Besides, the TGI in the test with A549 NSCLC was more than 100 µM; in the test on SF-295 CNS, 56.2 µM.

Regarding `O=Cc1cc2c(cc1-c1c(C=O)ccc3c1OCO3)OCO2`, the TGI with ACHN renal, in the test on HL-60(TB) leukemia, in the test on K-562 leukemia, in the test on SK-OV-3 ovarian, in the test on RPMI-8226 leukemia and in the test on HCT-15 colon was more than 10 µM throughout. The TGI in the test with A549 NSCLC and in the test with SF-295 CNS was more than 10 µM in each case.

Take `CC1OC2CC(=O)OC2C2=C1C(=O)c1c(O)cccc1C2=O` (stereo not drawn): the GI50 in the test on ACHN renal was 0.0299 µM; in the test on NCI-H226 lung, 0.454 µM; in the test with K-562 leukemia it was 0.0298 µM; with SK-OV-3 ovarian, 1.34 µM; with RPMI-8226 leukemia it was 0.0587 µM; in the test with HCT-15 colon it was 0.0314 µM. For the same compound, the GI50 in the test on A549 NSCLC was 0.831 µM; in the test with SK-MEL-2 melanoma, 0.0885 µM; in the test with SF-295 CNS, 0.956 µM. For the same compound, the TGI was 0.0992 µM in the test with ACHN renal; 0.929 µM in the test on NCI-H226 lung; more than 100 µM in the test with K-562 leukemia; 2.67 µM in the test with SK-OV-3 ovarian; 0.602 µM with RPMI-8226 leukemia; 0.15 µM in the test with HCT-15 colon. Also, the TGI is 2.68 µM with A549 NSCLC, 0.272 µM with SK-MEL-2 melanoma and 2.62 µM with SF-295 CNS.

For the compound `CC(C)(C)OC(=O)NCC(=O)OCc1ccccc1`, the TGI in the test with ACHN renal, in the test with HL-60(TB) leukemia, in the test with K-562 leukemia, in the test with SK-OV-3 ovarian, with HCT-15 colon and in the test with A549 NSCLC was more than 100 µM in each case. Further, the TGI in the test with SK-MEL-2 melanoma and with SF-295 CNS was more than 100 µM throughout.

As to `C=C(F)C(=O)N1CCN(c2nc(OC[C@@H]3CCCN3C)nc3c2CCN(c2cccc4cccc(Cl)c24)C3)C[C@@H]1CC#N`, the GI50 was 0.962 µM in the test with ACHN renal; 0.86 µM with HL-60(TB) leukemia; 0.421 µM in the test with K-562 leukemia; 2.17 µM in the test with SK-OV-3 ovarian; 1.24 µM in the test with RPMI-8226 leukemia; 0.56 µM in the test on HCT-15 colon. Further, the GI50 in the test on A549 NSCLC is 0.673 µM; in the test on SK-MEL-2 melanoma it was 1.4 µM; in the test with SF-295 CNS, 1.48 µM. Further, the TGI with ACHN renal is 2.58 µM; in the test with HL-60(TB) leukemia, 2.5 µM; in the test on K-562 leukemia, 1.84 µM; with SK-OV-3 ovarian, 4.94 µM; in the test on RPMI-8226 leukemia, 3.45 µM; in the test on HCT-15 colon, 2.06 µM. For the same compound, the figures for the TGI in the test on A549 NSCLC, with SK-MEL-2 melanoma and in the test on SF-295 CNS were 2.57 µM, 2.8 µM and 3.13 µM, respectively.

Regarding `COC(=O)c1cc2c(cc1O)[C@@H](NC(C)=O)CCc1cc(OC)c(OC)c(OC)c1-2`, the GI50 in the test on ACHN renal is 0.0459 µM; in the test with NCI-H226 lung it was 0.0309 µM; with K-562 leukemia, 0.0246 µM; in the test with SK-OV-3 ovarian, 0.0831 µM; in the test on RPMI-8226 leukemia, 0.0524 µM; with HCT-15 colon, 0.0226 µM. Besides, the GI50 in the test with A549 NSCLC was 0.0313 µM; in the test with SK-MEL-2 melanoma it was less than 0.01 µM; with SF-295 CNS, less than 0.01 µM. Moreover, the TGI in the test with ACHN renal was more than 100 µM; with K-562 leukemia it was more than 100 µM; with SK-OV-3 ovarian it was more than 100 µM; with RPMI-8226 leukemia, more than 100 µM; in the test with A549 NSCLC, more than 100 µM; with SK-MEL-2 melanoma, 0.0371 µM. The TGI in the test on SF-295 CNS was more than 100 µM.

With `CC(=O)Nc1ccc(C(=O)NN2C(=O)C(Cl)C2c2ccccc2)cc1` (stereo not drawn), the TGI in the test on ACHN renal, in the test with NCI-H226 lung, in the test on HL-60(TB) leukemia, in the test with K-562 leukemia, in the test with SK-OV-3 ovarian and with A549 NSCLC was more than 100 µM each time. The TGI in the test on SK-MEL-2 melanoma and in the test with SF-295 CNS was more than 100 µM throughout.

For the compound `O=S(O)CCCCSSCC(O)C(O)CSSCCCCS(=O)O` (stereo not drawn), the TGI was 68.7 µM and 90 µM with ACHN renal; 53.9 µM and > 100 µM in the test with HL-60(TB) leukemia; 60.6 µM and > 100 µM with K-562 leukemia; more than 100 µM in the test with SK-OV-3 ovarian; 46.4 µM and 46.1 µM with RPMI-8226 leukemia; more than 100 µM with HCT-15 colon. Moreover, the TGI in the test with A549 NSCLC was more than 100 µM; in the test on SK-MEL-2 melanoma, 37.4 µM and 49.8 µM; with SF-295 CNS, 33.1 µM and 37.5 µM.

Regarding `COc1ccc(NC(=O)CCc2cc(-c3ccc(O)c(OC)c3)nc(NC#N)n2)cc1`, the TGI in the test with ACHN renal, in the test on NCI-H226 lung, with HL-60(TB) leukemia, with K-562 leukemia, in the test on SK-OV-3 ovarian and in the test on HCT-15 colon was more than 100 µM in each case. In addition, the TGI with A549 NSCLC, in the test on SK-MEL-2 melanoma and in the test with SF-295 CNS was more than 100 µM in each case.

As for `O=C1c2ccccc2C(=O)C1(Cl)C1(S(=O)(=O)O)c2ccccc2-c2ccccc21`, the TGI in the test on ACHN renal, in the test on NCI-H226 lung, in the test with HL-60(TB) leukemia, in the test on K-562 leukemia, with SK-OV-3 ovarian and with RPMI-8226 leukemia was more than 100 µM each time. The TGI in the test with HCT-15 colon, in the test on A549 NSCLC and with SF-295 CNS was more than 100 µM each time.

In the case of `CCOC(=O)Oc1c(OC)cc(C(=O)NC2CCc3cc(OC)c(OC)c(OC)c3-c3ccc(SC)c(=O)cc32)cc1OC` (stereo not drawn), the GI50 was 0.235 µM with ACHN renal; 0.00709 µM in the test with NCI-H226 lung; 0.00717 µM in the test with SK-OV-3 ovarian; 0.132 µM in the test with HCT-15 colon; 0.0288 µM in the test on A549 NSCLC; 0.0242 µM in the test with SF-295 CNS. The TGI with ACHN renal was more than 70 µM; in the test on NCI-H226 lung, 0.0974 µM and 0.0242 µM; in the test on K-562 leukemia, 0.774 µM; in the test on SK-OV-3 ovarian it was 0.466 µM and 0.0553 µM; in the test on HCT-15 colon, 13.6 µM; in the test on A549 NSCLC, more than 70 µM. This compound yielded a TGI with SK-MEL-2 melanoma of 0.0832 µM.
